Reference: ChEMBL document CHEMBL3817754, “Synthesis and evaluation of donepezilferulic acid hybrids as multi-target-directed ligands against Alzheimer's disease” (Medchemcomm, 2016)
Active and inactive are the calls of the source. The rule behind the calls is not given here.

How the values were obtained:
Acetylcholinesterase [1] = target: Acetylcholinesterase (Electrophorus electricus, UniProt O42275); assay: Inhibition of electric eel acetylcholinesterase preincubated for 5 mins followed by addition of acetylthiocholine iodide as substrate measured after 60 to 120 mins by Ellmans method
Chain of Acetylcholinesterase (Electrophorus electricus, UniProt O42275) (O42275 whole entry): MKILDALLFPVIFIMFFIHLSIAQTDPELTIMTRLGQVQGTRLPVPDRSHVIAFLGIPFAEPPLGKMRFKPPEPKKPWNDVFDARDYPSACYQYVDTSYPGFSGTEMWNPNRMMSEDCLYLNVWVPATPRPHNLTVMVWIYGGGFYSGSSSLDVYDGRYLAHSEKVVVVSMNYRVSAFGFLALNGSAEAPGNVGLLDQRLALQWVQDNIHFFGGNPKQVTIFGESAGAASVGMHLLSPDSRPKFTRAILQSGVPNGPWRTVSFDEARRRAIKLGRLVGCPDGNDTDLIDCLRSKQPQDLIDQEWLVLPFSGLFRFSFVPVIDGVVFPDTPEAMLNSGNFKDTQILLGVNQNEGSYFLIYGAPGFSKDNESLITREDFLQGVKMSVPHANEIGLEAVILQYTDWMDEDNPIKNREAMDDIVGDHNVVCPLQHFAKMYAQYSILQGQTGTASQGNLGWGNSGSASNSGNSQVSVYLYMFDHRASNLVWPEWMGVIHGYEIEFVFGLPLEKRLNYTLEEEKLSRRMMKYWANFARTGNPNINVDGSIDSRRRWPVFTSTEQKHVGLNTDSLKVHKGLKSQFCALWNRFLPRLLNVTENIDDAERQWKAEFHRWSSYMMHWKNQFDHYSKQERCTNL

Cholinesterase [2] = target: Cholinesterase (Equus caballus, UniProt P81908); assay: Inhibition of equine serum butyrylcholinesterase preincubated for 5 mins followed by addition of S-butyrylthiocholine iodide as substrate measured after 60 to 120 mins by Ellmans method
Chain of Cholinesterase (Equus caballus, UniProt P81908) (P81908 whole entry): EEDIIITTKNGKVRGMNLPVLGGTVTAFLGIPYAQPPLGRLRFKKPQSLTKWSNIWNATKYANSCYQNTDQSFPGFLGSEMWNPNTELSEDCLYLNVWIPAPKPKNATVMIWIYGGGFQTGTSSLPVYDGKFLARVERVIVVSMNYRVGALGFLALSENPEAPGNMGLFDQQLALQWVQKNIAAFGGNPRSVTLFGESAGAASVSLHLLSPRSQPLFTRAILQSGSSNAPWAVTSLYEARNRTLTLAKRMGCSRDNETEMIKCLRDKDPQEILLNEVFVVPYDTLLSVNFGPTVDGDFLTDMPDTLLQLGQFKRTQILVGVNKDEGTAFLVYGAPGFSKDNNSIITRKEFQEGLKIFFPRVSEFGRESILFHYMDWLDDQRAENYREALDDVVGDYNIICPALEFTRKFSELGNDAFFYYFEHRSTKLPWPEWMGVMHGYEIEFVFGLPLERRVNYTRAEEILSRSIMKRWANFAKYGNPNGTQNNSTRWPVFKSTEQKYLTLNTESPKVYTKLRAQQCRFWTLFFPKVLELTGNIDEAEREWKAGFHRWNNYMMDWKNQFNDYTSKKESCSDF

[3] = Selectivity index, ratio of IC50 for equine serum butyrylcholinesterase to IC50 for electric eel acetylcholinesterase
Acetylcholinesterase [4] = target: Acetylcholinesterase (Homo sapiens, UniProt P22303); assay: Inhibition of human erythrocytes acetylcholinesterase preincubated for 5 mins followed by addition of acetylthiocholine iodide as substrate measured after 60 to 120 mins by Ellmans method
Chain of Acetylcholinesterase (Homo sapiens, UniProt P22303) (P22303 whole entry): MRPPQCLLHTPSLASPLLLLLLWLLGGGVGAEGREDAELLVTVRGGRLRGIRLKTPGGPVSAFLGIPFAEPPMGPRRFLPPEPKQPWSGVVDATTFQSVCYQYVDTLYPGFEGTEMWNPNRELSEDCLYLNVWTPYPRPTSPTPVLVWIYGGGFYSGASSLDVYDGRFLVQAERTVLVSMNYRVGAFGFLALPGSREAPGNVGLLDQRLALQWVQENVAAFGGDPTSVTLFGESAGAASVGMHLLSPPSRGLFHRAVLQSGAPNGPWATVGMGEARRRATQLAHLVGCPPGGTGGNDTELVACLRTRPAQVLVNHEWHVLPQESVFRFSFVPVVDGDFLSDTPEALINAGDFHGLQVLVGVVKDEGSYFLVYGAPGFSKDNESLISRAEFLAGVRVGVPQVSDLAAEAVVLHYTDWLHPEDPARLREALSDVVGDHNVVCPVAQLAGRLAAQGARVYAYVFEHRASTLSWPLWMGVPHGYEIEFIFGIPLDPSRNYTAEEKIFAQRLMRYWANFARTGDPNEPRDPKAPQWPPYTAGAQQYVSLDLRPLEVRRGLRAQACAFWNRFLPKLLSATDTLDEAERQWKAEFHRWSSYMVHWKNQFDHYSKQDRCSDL

Cholinesterase [5] = target: Cholinesterase (Homo sapiens, UniProt P06276); assay: Inhibition of human serum butyrylcholinesterase preincubated for 5 mins followed by addition of S-butyrylthiocholine iodide as substrate measured after 60 to 120 mins by Ellmans method
Chain of Cholinesterase (Homo sapiens, UniProt P06276) (P06276 whole entry): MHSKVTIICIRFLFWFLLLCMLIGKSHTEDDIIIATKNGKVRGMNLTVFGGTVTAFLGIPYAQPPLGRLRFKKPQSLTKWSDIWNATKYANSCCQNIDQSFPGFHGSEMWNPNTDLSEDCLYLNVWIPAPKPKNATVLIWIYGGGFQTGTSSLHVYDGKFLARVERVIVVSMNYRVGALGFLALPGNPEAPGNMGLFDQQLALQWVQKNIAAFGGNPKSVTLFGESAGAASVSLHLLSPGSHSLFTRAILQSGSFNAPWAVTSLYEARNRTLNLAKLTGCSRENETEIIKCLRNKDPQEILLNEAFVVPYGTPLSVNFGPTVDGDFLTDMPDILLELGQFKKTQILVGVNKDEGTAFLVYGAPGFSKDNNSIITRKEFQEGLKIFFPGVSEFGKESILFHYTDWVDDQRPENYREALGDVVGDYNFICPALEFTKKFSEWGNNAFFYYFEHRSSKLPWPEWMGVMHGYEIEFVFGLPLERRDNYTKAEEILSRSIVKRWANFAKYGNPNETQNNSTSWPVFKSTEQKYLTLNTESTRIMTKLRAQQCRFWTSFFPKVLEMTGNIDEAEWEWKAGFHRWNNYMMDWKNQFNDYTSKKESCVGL

Homo sapiens = species: Homo sapiens; assay: Selectivity index, ratio of IC50 for human serum butyrylcholinesterase to IC50 for human erythrocytes acetylcholinesterase
[6] = Cytotoxicity against […] PC12 cells assessed as cell viability at 20 uM after 24 hrs by MTT assay; format: cell-based; conditions: rat, pc-12, 24 h
PC-12 = assay: Neuroprotective activity against H2O2 induced damage in […] PC12 cells assessed as cell viability at 1 to 10 uM preincubated for 4 hrs followed by H2O2 challenge for 20 hrs by MTT assay; format: functional, cell-based; conditions: Rattus norvegicus
[7] = DPPH radical solution, 30 min
Description: Antioxidant activity assessed as DPPH radical scavenging activity incubated in dark for 30 mins by spectrophotometry

in vitro = conditions: PAMPA
[8] = Antioxidant activity assessed as DPPH radical scavenging activity at 1000 uM incubated in dark for 30 mins by spectrophotometry; format: physicochemical; conditions: 0.5 h
[9] = target: Acetylcholinesterase (Electrophorus electricus) (UniProt O42275); assay: Mixed-type inhibition of electric eel acetylcholinesterase at 0.2 to 0.8 uM preincubated for 5 mins followed by addition of acetylthiocholine iodide as substrate measured after 60 to 120 mins by Lineweaver-Burk plot analysis
Chain of Acetylcholinesterase (Electrophorus electricus) (O42275 24-633 limits assumed): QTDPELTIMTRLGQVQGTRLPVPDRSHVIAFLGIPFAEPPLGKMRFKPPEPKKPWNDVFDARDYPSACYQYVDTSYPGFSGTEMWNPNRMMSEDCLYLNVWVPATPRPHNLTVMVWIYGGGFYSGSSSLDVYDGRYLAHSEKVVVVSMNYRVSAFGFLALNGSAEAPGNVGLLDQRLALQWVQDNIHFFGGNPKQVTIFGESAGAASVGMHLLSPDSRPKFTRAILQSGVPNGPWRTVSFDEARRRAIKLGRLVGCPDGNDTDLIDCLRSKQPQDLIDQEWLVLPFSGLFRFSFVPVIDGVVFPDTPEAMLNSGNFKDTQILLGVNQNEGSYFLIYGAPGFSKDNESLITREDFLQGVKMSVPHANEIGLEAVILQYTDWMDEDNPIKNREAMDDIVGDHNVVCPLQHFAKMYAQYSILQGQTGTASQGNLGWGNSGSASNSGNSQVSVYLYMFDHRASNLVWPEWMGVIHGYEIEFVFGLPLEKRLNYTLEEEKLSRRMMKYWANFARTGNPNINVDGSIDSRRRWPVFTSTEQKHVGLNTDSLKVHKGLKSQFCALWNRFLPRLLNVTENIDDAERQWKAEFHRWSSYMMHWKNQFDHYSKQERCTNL

[10] = target: Cholinesterase (Equus caballus) (UniProt P81908); assay: Mixed-type inhibition of equine serum butyrylcholinesterase at 0.5 to 2 uM preincubated for 5 mins followed by addition of S-butyrylthiocholine iodide as substrate measured after 60 to 120 mins by Lineweaver-Burk plot analysis
Chain of Cholinesterase (Equus caballus) (P81908 whole entry): as the sequence (P81908 whole entry) above

[11] = Metal chelating activity assessed as copper-compound complex formation at 75 uM after 30 mins by UV-vis spectrometry; format: physicochemical; conditions: 0.5 h
[12] = Metal chelating activity assessed as ferrous-compound complex formation at 75 uM after 30 mins by UV-vis spectrometry; format: physicochemical; conditions: 0.5 h
[13] = Metal chelating activity assessed as ferric-compound complex formation at 75 uM after 30 mins by UV-vis spectrometry; format: physicochemical; conditions: 0.5 h
[14] = Metal chelating activity assessed as zinc-compound complex formation at 75 uM after 30 mins by UV-vis spectrometry; format: physicochemical; conditions: 0.5 h
[15] = target: Acetylcholinesterase (Electrophorus electricus) (UniProt O42275); assay: Inhibition of electric eel acetylcholinesterase at 1000 uM preincubated for 5 mins followed by addition of acetylthiocholine iodide as substrate measured after 60 to 120 mins by Ellmans method
[16] = target: Cholinesterase (Equus caballus) (UniProt P81908); assay: Inhibition of equine serum butyrylcholinesterase at 1000 uM preincubated for 5 mins followed by addition of S-butyrylthiocholine iodide as substrate measured after 60 to 120 mins by Ellmans method

SMILES | IC50 (Acetylcholinesterase [1]) [nM] | IC50 (Cholinesterase [2]) [nM] | Ratio IC50 [3] | IC50 (Acetylcholinesterase [4]) [nM] | IC50 (Cholinesterase [5]) [nM] | Ratio IC50 (Homo sapiens) | Activity [6] | IC50 [7] [nM] | inhibition (INH) [8] | also measured
O=C(/C=C/c1ccc(O)c(O)c1)NCCC1CCN(Cc2ccccc2)CC1 | 5170 | 165000 | 31.9 | 1450 | 145000 | 100 | Non-toxic | 10700 |  | Activity (PC-12): Active; Papp at 16 h, 5 mg/mL (in vitro): 5.38 ×10⁻⁶ cm/s
COc1ccc(/C=C/C(=O)NCCC2CCN(Cc3ccccc3)CC2)cc1OC | 285 | 1550 | 5.43 | 526 | 2540 | 4.83 | Non-toxic |  | Not Active | 
COc1cc(/C=C/C(=O)NCCC2CCN(Cc3ccccc3)CC2)cc(OC)c1OC | 130 | 416 | 3.2 | 234 | 669 | 2.86 | Non-toxic |  | Not Active | Papp at 16 h, 5 mg/mL (in vitro): 7.43 ×10⁻⁶ cm/s
COc1ccc(/C=C/C(=O)NCCC2CCN(Cc3ccccc3)CC2)cc1O | 1060 | 2470 | 2.33 | 1660 | 3240 | 1.95 | Non-toxic | 764000 |  | 
COc1cccc(/C=C/C(=O)NCCC2CCN(Cc3ccccc3)CC2)c1 | 383 | 244 | 0.642 | 690 | 1440 | 2.09 | Non-toxic |  | Not Active | 
Cc1c(C)c2c(c(C)c1O)CCC(C)(C(=O)O)O2 (stereo not drawn) |  |  |  |  |  |  |  |  |  | Activity (PC-12): Active
O=C(/C=C/c1ccc(O)cc1)CC(=O)NC1CCN(Cc2ccccc2)CC1 | 58300 | 3100 | 0.053 |  |  |  | Non-toxic | 890000 |  | 
COc1cc(/C=C/C(=O)NC2CCN(Cc3ccccc3)CC2)ccc1OC(C)=O | 22000 | 17300 | 0.786 |  |  |  | Non-toxic |  | Not Active | 
COc1cc(/C=C/C(=O)NC2CCN(Cc3ccccc3)CC2)cc(OC)c1O | 28200 | 7340 | 0.26 |  |  |  | Non-toxic | 22300 |  | 
COc1cc(/C=C/C(=O)NCCC2CCN(Cc3ccccc3)CC2)ccc1O | 651 | 1220 | 1.87 | 729 | 1120 | 1.54 | Non-toxic | 34100 |  | Activity (PC-12): Active; Papp at 16 h, 5 mg/mL (in vitro): 5.16 ×10⁻⁶ cm/s
COc1cc(/C=C/C(=O)NCCC2CCN(Cc3ccccc3)CC2)cc(OC)c1O | 398 | 976 | 2.2 | 321 | 1220 | 3.8 | Non-toxic | 24900 |  | inhibition [9]: Active; inhibition [10]: Active; Activity (PC-12): Active; Activity [11]: Active; Activity [12]: Not Active; Activity [13]: Not Active; Activity [14]: Not Active; Papp at 16 h, 5 mg/mL (in vitro): 7.68 ×10⁻⁶ cm/s
COc1cc(CCC(=O)NC2CCN(Cc3ccccc3)CC2)ccc1O | 33600 | 31900 | 0.949 |  |  |  | Non-toxic | 55100 |  | 
COc1cc(/C=C/C(=O)NC2CCN(Cc3ccccc3)CC2)ccc1O | 29300 | 49200 | 1.68 |  |  |  | Non-toxic | 32500 |  | 
O=C(/C=C/c1ccc(Cl)cc1)NCCC1CCN(Cc2ccccc2)CC1 | 521 | 2770 | 5.32 | 362 | 2070 | 5.72 | Toxic |  | Not Active | 
COc1cc(/C=C/C(=O)CC(=O)NCCC2CCN(Cc3ccccc3)CC2)ccc1O | 2600 | 1080 | 0.415 |  |  |  | Non-toxic | 76800 |  | 
O=C(/C=C/c1ccc(O)cc1)NC1CCN(Cc2ccccc2)CC1 | 70800 | 146000 | 2.06 |  |  |  | Non-toxic | 980000 |  | 
COc1cc(/C=C/C(=O)NC2CCN(Cc3ccccc3)CC2)cc(OC)c1OC | 31600 | 1250 | 0.038 |  |  |  | Non-toxic |  | Not Active | 

SMILES | IC50 (Acetylcholinesterase [1]) [nM] | IC50 (Cholinesterase [2]) [nM] | Ratio IC50 [3] | IC50 (Acetylcholinesterase [4]) [nM] | IC50 (Cholinesterase [5]) [nM] | Ratio IC50 (Homo sapiens) | Activity [6] | IC50 [7] [nM] | inhibition (INH) [8] | also measured
COc1cc(/C=C/C(=O)CC(=O)NC2CCN(Cc3ccccc3)CC2)ccc1O | 26300 | 53200 | 1.99 |  |  |  | Non-toxic | 88700 |  | 
COc1cc(/C=C/C(=O)O)ccc1O [FERULATE] |  |  | 4.95 |  |  |  |  | 30600 |  | inhibition [15]: inactive; inhibition [16]: inactive
NC1CCN(Cc2ccccc2)CC1 |  |  |  |  |  |  |  |  |  | inhibition [15]: inactive; inhibition [16]: inactive
O=C(/C=C/c1ccc(O)cc1)NCCC1CCN(Cc2ccccc2)CC1 | 874 | 1240 | 1.42 | 2200 | 784 | 0.36 | Non-toxic | 936000 |  | 
NCCC1CCN(Cc2ccccc2)CC1 | 159000 |  |  |  |  |  |  |  |  | inhibition [16]: inactive
COc1cc(/C=C/C(=O)NCCC2CCN(Cc3ccccc3)CC2)ccc1OC(C)=O | 290 | 670 | 2.31 | 339 | 245 | 0.72 | Non-toxic |  | Not Active | 
O=C(/C=C/c1ccc(O)c(O)c1)NC1CCN(Cc2ccccc2)CC1 | 62100 | 15000 | 0.241 |  |  |  | Non-toxic | 10600 |  | Activity (PC-12): Active
O=C(/C=C/c1ccc([N+](=O)[O-])cc1)NC1CCN(Cc2ccccc2)CC1 | 7120 | 9010 | 1.26 |  |  |  | Non-toxic |  | Not Active | 
COc1cc(CCC(=O)NCCC2CCN(Cc3ccccc3)CC2)ccc1O | 7480 | 4400 | 0.588 | 5320 | 286 | 0.054 | Non-toxic | 48300 |  | Activity (PC-12): Active
O=C(/C=C/c1ccc(F)cc1)NC1CCN(Cc2ccccc2)CC1 | 59300 | 90800 | 1.53 |  |  |  | Non-toxic |  | Not Active | 
O=C(/C=C/c1ccc([N+](=O)[O-])cc1)NCCC1CCN(Cc2ccccc2)CC1 | 444 | 3100 | 6.98 | 337 | 4230 | 12.5 | Non-toxic |  | Not Active | 
O=C(/C=C/c1ccc(Cl)cc1)NC1CCN(Cc2ccccc2)CC1 | 67700 | 51400 | 0.759 |  |  |  | Non-toxic |  | Not Active | 
COc1cc(/C=C/C(=O)CC(=O)/C=C/c2ccc(O)c(OC)c2)ccc1O [CURCUMIN] |  |  | 4.43 |  |  |  |  | 23300 |  | inhibition [15]: inactive; inhibition [16]: inactive
O=C(/C=C/c1ccccc1O)NCCC1CCN(Cc2ccccc2)CC1 | 2160 | 1060 | 0.491 | 2680 | 988 | 0.37 | Non-toxic | 977000 |  | 
O=C(/C=C/c1ccc(F)cc1)NCCC1CCN(Cc2ccccc2)CC1 | 815 | 1980 | 2.43 | 3300 | 7510 | 2.28 | Non-toxic |  | Not Active | 
O=C(/C=C/c1ccccc1)NCCC1CCN(Cc2ccccc2)CC1 | 543 | 390 | 0.718 | 411 | 1410 | 3.43 | Non-toxic |  | Not Active | 
